According to patent US12252493B2, “Imidazo[1,2-c]pyrimidine derivatives as PRC2 inhibitors for treating cancer” (Mirati Therapeutics, Inc., priority 2019, dated 2025):

Legend:
[1] = target: purified human, His-tagged PRC2 complex (Homo sapiens (Human), UniProt O75530); experiment: Hot Spot HMT assay of PRC2 enzymatic activity (tritiated methyl transfer from SAM to core histone); assay type: biochemical; conditions: 10 nM purified PRC2 complex, 0.05 mg/ml core histone H3, 1 uM 3H-SAM, 1 hr at 30° C.; read-out: IC50, Inhibition of PRC2-mediated Enzymatic Activity
Method: Ten-point dose-response curves for compounds of the present invention were determined using a Hot Spot HMT assay (Reaction Biology Corp; see Horiuchi et al., Assay Drug Dev Technol. (2013) 4: 227-236 doi: 10.1089/adt.2012.480). The assay uses purified human, His-tagged PRC2 complex, including N-terminal His-tagged EZH2 enzyme, N-terminal Flag-tagged embryonic ectoderm development protein (EED), N-terminal His-tagged suppressor of zeste 12 (SUZ12), N-terminal His-tagged AEBP2, and N-terminal His-tagged RbAp48. In this assay, the transfer of the tritiated methyl group from radiolabeled S-adenosyl methionine (SAM) to purified core histone protein by EZH2 is quantitated after filtration to determine the activity of the core PRC2 complex in the presence and absence of compound.
Briefly, compounds of the present invention were solubilized in DMSO and a series of 10, three-fold serial dilutions were made for each compound in 15% DMSO. The initial starting concentration for the serial dilutions of each compound was 1.0 μM. Control samples lacking compound, EZH2 enzyme or various reaction components also were prepared and processed in parallel with compound test samples. SAH (S-(5-adenosyl)-L-homocysteine) was used as a positive control for assay validation.
An aliquot of each serial dilution of test compound was added to deep 384 well plate using Acoustic Technology instrument (Echo 550, LabCyte) containing reaction buffer (50 mM Tris-HCl (pH 8.)), 0.01% Brij35, 1 mM EDTA, 1 mM DTT, 1 mM PMSF and 1% DMSO), 10 nM purified PRC2 complex and 0.05 mg/ml core histone H3 in a 5 μl volume. The reaction was mixed gently and then pre-incubated for 20 min at 30° C. The enzymatic reaction was initiated by adding 1 uM S-Adenosyl-L-[methyl ^3H]methionine and incubated for 1 hr at 30° C. After 1 hr, the reaction product was detected using a filter binding method and the amount of tritiated H3 core histone was quantitated using a scintillation counter. The IC50 value for each compound was determined from each 10-point dose-response curve using GraphPad Prism software and the results for exemplary compounds of Formula (I) are shown in Table 5. Key: A=≤250 nM; B=>250 nM—≤500 nM; and C=>500 nM—≤2 μM.

[2] = system: Karpas 422 cells expressing mutant EZH2 (Y641N); experiment: Karpas 422 cell viability (Cell Titre Glo) assay; assay type: cell-based, human; conditions: Homo sapiens, CTG viability, time point (Day 4, Day 7 or Day 11) not given, read-out: IC50, Inhibiting Proliferation of Cells Expressing an Activating Mutant Form of EZH2
Method: Karpas 422 cell line is a human B cell non-Hodgkin's lymphoma cell line established from a patient having DLBCL. This EZH2 heterozygotic cell line expresses a mutant form of EZH2 enzyme (Y641N) that increases histone H3 methylation and this mutation has been implicated in the tumorgenesis of lymphomas, such as DLBCL.
Karpas 422 cells (PHE cat no., 06101702) were cultured in RPMI medium supplemented with 20% fetal bovine serum and 1% penicillin/1% streptomycin and plated at a density of 1000 cells/90 μl/well in 96 well white assay plates. A dose response curve for compounds of the present invention was determined by adding a 10 μl aliquot of stock solutions of varying concentrations of compounds to the same medium in each well, over a concentration range of 10 μM using 3-fold dilutions to a final concentration of 1.5 nM. The plates were incubated at 37° C. for predetermined time periods, Day 4, Day 7, or Day 11, and the viability of the cells was measured using a CTG assay kit (Cell Titre Glo; Promega cat. no G7573) on Day 4 and Day 7 in accordance with the manufacturer's instructions.
For the viability assay for the Day 11 plates, the plates were subjected to centrifugation at 1100 rpm for five minutes on Day 7 and the supernatant was removed by aspiration. The cells were resuspended in 90 μl aliquot of the appropriate growth medium lacking the compound followed by addition of 10 μl of a 10× stock of the same compound at the same concentration. The viability of the Day 11 cells was measured using the CTG assay kit described above in accordance with the manufacturer's instructions. The IC50 values for each compound at each predetermined time point were calculated using Graph pad PRISM software and the results are shown in Table 7. Key: A=≤250 nM; B=>250 nM-≤500 nM; C=>500 nM-≤5 μM and N.D.=not determined.

[3] = system: PRC2-mediated histone H3 methylation (H3 Lys27 trimethylation) in Pfeiffer cells expressing mutant EZH2 (A677G); experiment: Tri-Methyl Histone H3 (Lys 27) sandwich ELISA in Pfeiffer cells; assay type: cell-based, human; conditions: Homo sapiens; Pfeiffer cells, 96 hours incubation, ELISA; read-out: IC50, Inhibition of EZH2-mediated Histone H3 Trimethylation
Text: The Pfeiffer cell line was established from a […] from a patient having metastatic diffuse large B-cell lymphoma (DLBCL). This cell line expresses a mutant form of the EZH2 enzyme (A677G) that results in enhanced EZH2 activity leading to increased methylation of histone H3 Lys27. Increased trimethylation of histone H3 Lys27 is believed to be implicated in tumorgenesis and poor clinical prognosis in lymphomas (McCabe et al., (2012) Nature 492:108-112).
Inhibition of PRC2-mediated histone H3 methylation by compounds of Formula (I) was measured by ELISA using a Tri-Methyl Histone H3 (Lys 27) Sandwich ELISA Kit (Cell Signaling Tech #7866C) in accordance with the manufacturer's instructions. Briefly, Pfeiffer cells were cultured in RPMI medium supplemented with 10% fetal bovine serum and 1% penicillin and 1% streptomycin in 96 well culture plates at 37° C. to a density of 8000 cells/90 μl/well and the cells were harvested. A series of 3-fold serial dilutions of each test compound of Formula (I) were prepared in RPMI medium and added to the cells at final concentrations ranging from 1 μM to 0.15 nM. The plates were incubated at 37° C. for 96 hours.
After incubation, the cells were pelleted by centrifugation in a pre-cooled 4° C. rotor at 1,100 rpm for 10 min and the supernatant was removed by aspiration. The cell pellet was resuspended in 55 μl of Lysis Buffer (0.4M HCl) and incubated on ice with periodic shaking for 30 minutes. The lysed cells were subjected to centrifugation at 4,200 rpm for 10 min at 4° C. and the supernatant containing acid-soluble proteins was collected and the remainder discarded. The acid-soluble proteins were brought to a neutral pH by the addition of 20 μl of Neutralization Buffer (1 M Sodium phosphate, dibasic (pH 12.5), 2.5 mM DTT and 1 mM PMSF) and the neutralized lysates were analyzed by ELISA.
A 65 μl aliquot of each cell lysate was added to a well of a microwell strip, the microwells were sealed using tape and incubated either at 37° C. for two hours or at 4° C. overnight. After incubation, the tape was removed at the microwells were washed four times using 200 μl of 1× Wash Buffer. To each washed microwell, a 100 μl aliquot of an anti-trimethyl histone H3 Lys27 Detection Antibody solution was added and the microwells were incubated at 37° C. for one hour. The Detection Antibody solution was removed by aspiration and the wells were washed four times each using 200 μl of 1× Wash Buffer.
A 100 μl aliquot of an HRP-linked secondary antibody was added to each well, the wells were sealed with tape and incubated at 37° C. for 30 min. The HRP-linked secondary antibody solution was removed by aspiration and the wells were washed four times using 200 μl of 1× Wash Buffer. A 100 μl aliquot of a TMB substrate was added to each well, the wells were sealed with tape and incubated at 37° C. for 10 min or 25° C. for 30 min. The reaction was stopped by the addition of 100 μl aliquot of a STOP solution and the plate was shaken briefly. The degree of histone H3 trimethylation was determined using a spectrophotometric readout by measuring the absorbance at 450 nm and then calculating the amount of trimethylated histone H3. Key: A=≤250 nM; B=>250 nM-≤500 nM; and C=>500 nM-≤5 μM.

Chain of purified human, His-tagged PRC2 complex (Q15910 whole entry): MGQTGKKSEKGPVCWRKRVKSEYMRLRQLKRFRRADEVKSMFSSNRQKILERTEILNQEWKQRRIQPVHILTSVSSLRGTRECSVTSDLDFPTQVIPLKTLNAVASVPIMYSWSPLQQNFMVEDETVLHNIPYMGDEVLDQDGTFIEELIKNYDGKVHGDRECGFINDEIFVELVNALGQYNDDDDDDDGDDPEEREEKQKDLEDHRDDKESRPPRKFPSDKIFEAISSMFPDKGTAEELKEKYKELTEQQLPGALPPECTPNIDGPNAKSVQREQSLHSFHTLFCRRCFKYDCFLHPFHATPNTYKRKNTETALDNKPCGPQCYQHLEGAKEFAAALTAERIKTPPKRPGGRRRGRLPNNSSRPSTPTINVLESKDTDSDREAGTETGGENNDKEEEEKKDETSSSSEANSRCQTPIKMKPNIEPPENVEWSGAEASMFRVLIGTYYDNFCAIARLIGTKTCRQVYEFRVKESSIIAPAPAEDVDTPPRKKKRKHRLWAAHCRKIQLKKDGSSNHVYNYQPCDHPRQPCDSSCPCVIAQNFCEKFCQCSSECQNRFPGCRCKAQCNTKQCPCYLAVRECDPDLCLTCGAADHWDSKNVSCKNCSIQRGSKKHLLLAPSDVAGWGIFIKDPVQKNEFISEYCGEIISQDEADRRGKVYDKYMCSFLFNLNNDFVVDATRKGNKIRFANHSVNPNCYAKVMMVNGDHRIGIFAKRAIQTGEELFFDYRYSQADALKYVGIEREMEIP
Chain of purified human, His-tagged PRC2 complex (O75530 whole entry): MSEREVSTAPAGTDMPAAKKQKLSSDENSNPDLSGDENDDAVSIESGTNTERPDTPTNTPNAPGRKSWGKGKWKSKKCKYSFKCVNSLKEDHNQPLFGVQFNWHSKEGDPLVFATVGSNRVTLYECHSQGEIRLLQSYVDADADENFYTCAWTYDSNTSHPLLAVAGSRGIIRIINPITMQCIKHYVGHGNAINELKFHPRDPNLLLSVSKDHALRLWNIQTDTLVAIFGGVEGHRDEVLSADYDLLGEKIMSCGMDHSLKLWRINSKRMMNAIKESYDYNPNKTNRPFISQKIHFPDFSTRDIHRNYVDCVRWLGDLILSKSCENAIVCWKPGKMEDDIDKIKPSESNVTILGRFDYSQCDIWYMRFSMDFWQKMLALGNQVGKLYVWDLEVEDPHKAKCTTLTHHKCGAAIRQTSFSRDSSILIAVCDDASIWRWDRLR
Chain of purified human, His-tagged PRC2 complex (Q15022 whole entry partner): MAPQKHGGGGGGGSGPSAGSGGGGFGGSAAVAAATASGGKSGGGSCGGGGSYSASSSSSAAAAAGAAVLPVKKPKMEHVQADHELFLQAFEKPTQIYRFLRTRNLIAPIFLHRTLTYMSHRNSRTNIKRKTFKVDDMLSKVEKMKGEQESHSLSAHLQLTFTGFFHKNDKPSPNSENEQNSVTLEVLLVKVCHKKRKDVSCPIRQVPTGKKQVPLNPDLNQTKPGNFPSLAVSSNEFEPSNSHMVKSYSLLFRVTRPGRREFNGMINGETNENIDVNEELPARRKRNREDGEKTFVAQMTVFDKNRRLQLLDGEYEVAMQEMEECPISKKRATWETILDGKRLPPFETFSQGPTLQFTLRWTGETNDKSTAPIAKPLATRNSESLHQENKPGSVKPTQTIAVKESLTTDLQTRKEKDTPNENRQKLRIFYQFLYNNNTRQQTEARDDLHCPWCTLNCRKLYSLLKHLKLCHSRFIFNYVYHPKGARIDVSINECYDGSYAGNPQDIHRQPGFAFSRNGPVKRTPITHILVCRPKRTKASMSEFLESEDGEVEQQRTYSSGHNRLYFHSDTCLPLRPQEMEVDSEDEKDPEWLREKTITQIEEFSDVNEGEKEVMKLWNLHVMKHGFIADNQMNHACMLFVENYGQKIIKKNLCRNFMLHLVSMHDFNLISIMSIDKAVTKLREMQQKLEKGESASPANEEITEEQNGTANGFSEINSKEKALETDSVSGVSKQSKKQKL
Chain of purified human, His-tagged PRC2 complex (Q6ZN18 whole entry partner): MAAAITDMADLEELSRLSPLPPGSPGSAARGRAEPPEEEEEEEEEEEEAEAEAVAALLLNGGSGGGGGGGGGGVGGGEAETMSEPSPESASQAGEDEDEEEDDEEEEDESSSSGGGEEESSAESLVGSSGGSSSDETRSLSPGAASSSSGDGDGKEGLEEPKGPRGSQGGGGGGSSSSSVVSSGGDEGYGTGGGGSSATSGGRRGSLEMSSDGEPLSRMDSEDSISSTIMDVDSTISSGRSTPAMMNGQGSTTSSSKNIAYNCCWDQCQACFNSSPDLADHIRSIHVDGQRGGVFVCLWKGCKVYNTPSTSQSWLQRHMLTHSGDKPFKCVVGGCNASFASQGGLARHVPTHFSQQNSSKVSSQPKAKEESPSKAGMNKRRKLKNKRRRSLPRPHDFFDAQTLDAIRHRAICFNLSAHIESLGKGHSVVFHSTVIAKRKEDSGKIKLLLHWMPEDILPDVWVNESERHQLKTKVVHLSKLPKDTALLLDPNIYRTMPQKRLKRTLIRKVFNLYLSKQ
Chain of purified human, His-tagged PRC2 complex (Q09028 whole entry partner): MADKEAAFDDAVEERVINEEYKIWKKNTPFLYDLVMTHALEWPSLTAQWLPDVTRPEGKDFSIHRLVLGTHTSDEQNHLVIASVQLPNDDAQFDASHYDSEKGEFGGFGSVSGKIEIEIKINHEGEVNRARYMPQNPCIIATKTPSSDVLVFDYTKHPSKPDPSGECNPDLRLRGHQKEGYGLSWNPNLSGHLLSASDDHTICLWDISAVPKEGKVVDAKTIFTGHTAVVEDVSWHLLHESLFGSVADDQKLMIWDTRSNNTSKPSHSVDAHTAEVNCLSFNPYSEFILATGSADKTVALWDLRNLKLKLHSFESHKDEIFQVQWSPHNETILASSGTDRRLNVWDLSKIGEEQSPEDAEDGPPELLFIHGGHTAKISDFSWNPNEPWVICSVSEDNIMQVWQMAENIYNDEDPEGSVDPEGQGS

| SMILES | IC50 [1] [nM] | IC50 [2] [nM] | IC50 [3] [nM] |
| --- | --- | --- | --- |
| Cc1cc(CN(C)C)ccc1-c1cnc(NCc2c(F)ccc3c2CCO3)n2cc(C(C)N)nc12 (stereo not drawn) [Example 37, 2-(1-aminoethyl)-8-(4-((dimethylamino)methyl)-2-methylphenyl)-N-((5-fluoro-2,3-dihydrobenzofuran-4-yl)methyl)imidazo[1,2-c]pyrimidin-5-amine] | < 250 | < 250 | < 250 |
| Cc1cc(-c2cnc(NCc3c(F)ccc4c3CCO4)n3cc(C(C)N)nc23)ccn1 (stereo not drawn) [Example 38, 2-(1-aminoethyl)-N-((5-fluoro-2,3-dihydrobenzofuran-4-yl)methyl)-8-(2-methylpyridin-4-yl)imidazo[1,2-c]pyrimidin-5-amine] | < 250 | < 250 | < 250 |
| Cc1ncccc1-c1cnc(NCc2c(F)ccc3c2CCO3)n2cc(CN)nc12 [Example 19, 2-(aminomethyl)-N-((5-fluoro-2,3-dihydrobenzofuran-4-yl)methyl)-8-(2-methylpyridin-3-yl)imidazo[1,2-c]pyrimidin-5-amine] | < 250 | < 250 | 250 to 500 |
| NCc1cn2c(NCc3c(F)ccc4c3CCO4)ncc(-c3ccccc3Cl)c2n1 [Example 22, 2-(aminomethyl)-8-(2-chlorophenyl)-N-((5-fluoro-2,3-dihydrobenzofuran-4-yl)methyl)imidazo[1,2-c]pyrimidin-5-amine] | 500 to 2000 | 500 to 5000 | 500 to 5000 |
| Cc1cc(-c2cnc(NCc3c(F)ccc4c3CCO4)n3cc(CNCc4ccccc4)nc23)n(C)n1 [Example 32, 2-((benzylamino)methyl)-8-(1,3-dimethyl-1H-pyrazol-5-yl)-N-((5-fluoro-2,3-dihydrobenzofuran-4-yl)methyl)imidazo[1,2-c]pyrimidin-5-amine] | 500 to 2000 | < 250 | 250 to 500 |
| Cc1ncccc1-c1cnc(NCc2c(F)ccc3c2CCO3)n2cc(C(C)N)nc12 (stereo not drawn) [Example 39, 2-(1-aminoethyl)-N-((5-fluoro-2,3-dihydrobenzofuran-4-yl)methyl)-8-(2-methylpyridin-3-yl)imidazo[1,2-c]pyrimidin-5-amine] | < 250 | < 250 | < 250 |
| Cc1cc(-c2cnc(NCc3c(F)ccc4c3CCO4)n3cc(C(N)C4CC4)nc23)n(C)n1 (stereo not drawn) [Example 41, 2-(amino(cyclopropyl)methyl)-8-(1,3-dimethyl-1H-pyrazol-5-yl)-N-((5-fluoro-2,3-dihydrobenzofuran-4-yl)methyl)imidazo[1,2-c]pyrimidin-5-amine] | < 250 | < 250 | < 250 |
| CC(N)c1cn2c(NCc3c(F)ccc4c3CCO4)ncc(-c3cc(C#N)nn3C)c2n1 (stereo not drawn) [Example 40, 5-(2-(1-aminoethyl)-5-(((5-fluoro-2,3-dihydrobenzofuran-4-yl)methyl)amino)imidazo[1,2-c]pyrimidin-8-yl)-1-methyl-1H-pyrazole-3-carbonitrile] | < 250 | < 250 | < 250 |
| Cc1cc(-c2cnc(NCc3c(F)ccc4occc34)n3cc(CN)nc23)n(C)n1 [Example 24] | 500 to 2000 | 250 to 500 | 250 to 500 |

The next lines start with the values.

| IC50 [1] [nM] | IC50 [2] [nM] | IC50 [3] [nM] | SMILES |
| --- | --- | --- | --- |
| < 250 | < 250 | 250 to 500 | COc1ccc(-c2cnc(NCc3c(F)ccc4c3CCO4)n3cc(CN)nc23)c(C)n1 [Example 20, 2-(aminomethyl)-N-((5-fluoro-2,3-dihydrobenzofuran-4-yl)methyl)-8-(6-methoxy-2-methylpyridin-3-yl)imidazo[1,2-c]pyrimidin-5-amine] |
| 500 to 2000 | 500 to 5000 | 500 to 5000 | Cc1cccc(-c2cnc(NCc3c(F)ccc4c3CCO4)n3cc(CN)nc23)c1 [Example 21, 2-(aminomethyl)-N-((5-fluoro-2,3-dihydrobenzofuran-4-yl)methyl)-8-(m-tolyl)imidazo[1,2-c]pyrimidin-5-amine] |
| < 250 | < 250 | < 250 | Cc1cc(-c2cnc(NCc3c(F)ccc4c3CCO4)n3cc(-c4nnco4)nc23)n(C)n1 [Example 44, 8-(1,3-dimethyl-1H-pyrazol-5-yl)-N-((5-fluoro-2,3-dihydrobenzofuran-4-yl)methyl)-2-(1,3,4-oxadiazol-2-yl)imidazo[1,2-c]pyrimidin-5-amine] |
| < 250 | < 250 | < 250 | Cc1cc(S(C)(=O)=O)ccc1-c1cnc(NCc2c(F)ccc3c2CCO3)n2cc(CN)nc12 [Example 13, 2-(aminomethyl)-N-((5-fluoro-2,3-dihydrobenzofuran-4-yl)methyl)-8-(2-methyl-4-(methylsulfonyl)phenyl)imidazo[1,2-c]pyrimidin-5-amine] |
